EC50 data for 28 molecules are collected here from US12599582B2, “Pyrrole compounds” (ALIGOS THERAPEUTICS, INC., priority 2019, dated 2026).

The term EC50 denotes the concentration that produces a half-maximal response.

The test system of the assay is HBV. Nature of the assay: HBV-DNA Antiviral Assay Using HepG2.2.15 Cells (extracellular HBV DNA by qPCR). It is filed as cell-based, hepatitis B virus (HBV). As to conditions: Hepatitis B virus; HBV DNA inhibition, HepG2.2.15 cells, extracellular HBV DNA by qPCR; read-out: EC50. Put shortly:
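HepG2.2.15 cells were treated on day 1 with 8 concentrations (4-fold dilutions, duplicate; 0.5% DMSO), with compound-containing medium refreshed on day 4, at 37 °C. On day 7, supernatant HBV DNA was measured by qPCR against a plasmid standard curve, with inhibition normalised between DMSO and ETV controls. EC50/EC90 and CC50 (CellTiter-Glo ATP) came from variable-slope fits.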
As for `Cc1c(C(=O)C(=O)NC(C)(C)c2ccc(F)cn2)c(C)n(C)c1C(=O)Nc1ccc(F)c(C#N)c1` [Compound 145, N-(3-cyano-4-fluoro-phenyl)-4-[2-[[1-(5-fluoro-2-pyridyl)-1-methyl-ethyl]amino]-2-oxo-acetyl]-1,3,5-trimethyl-pyrrole-2-carboxamide], the EC50 lay within 1 to 10 nM. `C#CCNC(=O)C(=O)c1c(C)c(C(=O)Nc2ccnc(Br)c2F)n(C)c1C` [Compound 4, N-(2-bromo-3-fluoro-4-pyridyl)-1,3,5-trimethyl-4-[2-oxo-2-(prop-2-ynylamino)acetyl]pyrrole-2-carboxamide]: the EC50 fell in the range of 1 to 10 nM. For the molecule `C#CCNC(=O)C(=O)c1c(F)c(C(=O)Nc2ccc(F)c(C#N)c2)n(C)c1C` [Compound 13, N-(3-cyano-4-fluoro-phenyl)-3-fluoro-1,5-dimethyl-4-[2-oxo-2-(prop-2-ynylamino)acetyl]pyrrole-2-carboxamide], the EC50 lay within 1 to 10 nM.

On to `C#CC1(N(COC(=O)[C@@H](N)C(C)C)C(=O)C(=O)c2c(C)c(C(=O)Nc3ccc(F)c(C#N)c3)n(C)c2C)COC1` [Compound 105, [[2-[5-[(3-cyano-4-fluoro-phenyl)carbamoyl]-1,2,4-trimethyl-pyrrol-3-yl]-2-oxo-acetyl]-(3-ethynyloxetan-3-yl)amino]methyl-(2S)-2-amino-3-methyl-butanoate], for which the EC50 is 1 to 10 nM. With `C#CC(CC)(CC)NC(=O)C(=O)c1c(C)c(C(=O)Nc2ccc(F)c(F)c2)n(C)c1C` [Compound 89, 4-[2-(1,1-diethylprop-2-ynylamino)-2-oxo-acetyl]-N-(3,4-difluorophenyl)-1,3,5-trimethyl-pyrrole-2-carboxamide], the EC50 was in the range of 1 to 10 nM. Consider `Cc1c(C(=O)C(=O)NC(C)(C)c2nnco2)c(C)n(C)c1C(=O)Nc1ccc(F)c(C(F)(F)F)c1` [Compound 143, N-[4-fluoro-3-(trifluoromethyl)phenyl]-1,3,5-trimethyl-4-[2-[[1-methyl-1-(1,3,4-oxadiazol-2-yl)ethyl]amino]-2-oxo-acetyl]pyrrole-2-carboxamide], for which the EC50 was 1 to 10 nM. As to `Cc1c(C(=O)C(=O)NC2(c3cn[nH]c3)COC2)c(C)n(C)c1C(=O)Nc1ccc(F)c(C(F)(F)F)c1` [Compound 158, N-[4-fluoro-3-(trifluoromethyl)phenyl]-1,3,5-trimethyl-4-[2-oxo-2-[[3-(1H-pyrazol-4-yl)oxetan-3-yl]amino]acetyl]pyrrole-2-carboxamide], the EC50 was below 1 nM. As to `C#CC1(NC(=O)C(=O)c2c(C)c(C(=O)Nc3ccc(Cl)c(Br)c3)n(C)c2C)CC(F)(F)C1` [Compound 133, N-(3-bromo-4-chloro-phenyl)-4-[2-[(1-ethynyl-3,3-difluoro-cyclobutyl)amino]-2-oxo-acetyl]-1,3,5-trimethyl-pyrrole-2-carboxamide], the EC50 fell in the range of 1 to 10 nM. Next, `Cc1cc(NC(=O)c2c(C)c(C(=O)C(=O)NC(C)(C)c3ccc4[nH]cnc4c3)c(C)n2C)ccc1F` [Compound 162, 4-[2-[[1-(1H-benzimidazol-5-yl)-1-methyl-ethyl]amino]-2-oxo-acetyl]-N-(4-fluoro-3-methyl-phenyl)-1,3,5-trimethyl-pyrrole-2-carboxamide]: 1 to 10 nM; `Cc1c(C(=O)C(=O)NC(C)(C)c2cnn(C)c2)c(C)n(C)c1C(=O)Nc1ccc(F)c(C#N)c1` [Compound 70, N-(3-cyano-4-fluoro-phenyl)-1,3,5-trimethyl-4-[2-[[1-methyl-1-(1-methylpyrazol-4-yl)ethyl]amino]-2-oxo-acetyl]pyrrole-2-carboxamide]: 1 to 10 nM; `C=C[C@](C)(NC(=O)C(=O)c1c(C)c(C(=O)Nc2ccc(F)c(C#N)c2)n(C)c1C)C(F)(F)F` [Compound 95b, N-(3-cyano-4-fluoro-phenyl)-1,3,5-trimethyl-4-[2-oxo-2-[[(1S)-1-methyl-1-(trifluoromethyl)allyl]amino]acetyl]pyrrole-2-carboxamide]: 1 to 10 nM.

On to `Cc1c(C(=O)C(=O)NC(C)(C)c2c[nH]cn2)c(C)n(C)c1C(=O)Nc1ccc(F)c(C(F)(F)F)c1` [Compound 106, N-[4-fluoro-3-(trifluoromethyl)phenyl]-4-[2-[[1-(1H-imidazol-4-yl)-1-methyl-ethyl]amino]-2-oxo-acetyl]-1,3,5-trimethyl-pyrrole-2-carboxamide], for which the EC50 fell in the range of 1 to 10 nM. For the molecule `C#CC1(NC(=O)C(=O)c2c(C)c(C(=O)Nc3ccc(F)c(F)c3)n(C)c2C)CCCCC1` [Compound 87, N-(3,4-difluorophenyl)-4-[2-[(1-ethynylcyclohexyl)amino]-2-oxo-acetyl]-1,3,5-trimethyl-pyrrole-2-carboxamide], the EC50 was 1 to 10 nM. With `C#C[C@@](CO)(NC(=O)C(=O)c1c(C)c(C(=O)Nc2ccc(F)c(C(F)(F)F)c2)n(C)c1C)C1CC1` [Compound 65b, N-[4-fluoro-3-(trifluoromethyl)phenyl]-1,3,5-trimethyl-4-[2-oxo-2-[[(1S)-1-cyclopropyl-1-(hydroxymethyl)prop-2-ynyl]amino]acetyl]pyrrole-2-carboxamide], the EC50 lay in the range of 1 to 10 nM. In the case of `Cc1c(C(=O)C(=O)NC(C)(C)c2cn[nH]c2)c(C)n(C)c1C(=O)Nc1ccc(F)c(C#N)c1` [Compound 96, N-(3-cyano-4-fluoro-phenyl)-1,3,5-trimethyl-4-[2-[[1-methyl-1-(1H-pyrazol-4-yl)ethyl]amino]-2-oxo-acetyl]pyrrole-2-carboxamide], the EC50 lay within 1 to 10 nM. The same measure for `Cc1c(C(=O)C(=O)NC(C)(C)c2cnn(C3CC3)c2)c(C)n(C)c1C(=O)Nc1ccc(F)c(C#N)c1` [Compound 135, N-(3-cyano-4-fluoro-phenyl)-4-[2-[[1-(1-cyclopropylpyrazol-4-yl)-1-methyl-ethyl]amino]-2-oxo-acetyl]-1,3,5-trimethyl-pyrrole-2-carboxamide]: 1 to 10 nM. For the molecule `C#C[C@H](C)NC(=O)C(=O)c1c(C)c(C(=O)Nc2ccc(F)c(C#N)c2)n(C)c1C` [Compound 17b, N-(3-cyano-4-fluoro-phenyl)-1,3,5-trimethyl-4-[2-oxo-2-[[(1S)-1-methylprop-2-ynyl]amino]acetyl]pyrrole-2-carboxamide], the EC50 was 1 to 10 nM.

On to `C=CCNC(=O)C(=O)c1c(C)c(C(=O)Nc2ccnc(Br)c2F)n(C)c1C` [Compound 5, 4-[2-(allylamino)-2-oxo-acetyl]-N-(2-bromo-3-fluoro-4-pyridy1)-1,3,5-trimethyl-pyrrole-2-carboxamide], for which the EC50 lay within 10 to 100 nM. Take `Cc1c(C(=O)C(=O)NC(C)(C)c2cscn2)c(C)n(C)c1C(=O)Nc1ccc(F)c(C#N)c1` [Compound 140, N-(3-cyano-4-fluoro-phenyl)-1,3,5-trimethyl-4-[2-[(1-methyl-1-thiazol-4-yl-ethyl)amino]-2-oxo-acetyl]pyrrole-2-carboxamide]: the EC50 is 1 to 10 nM.

Take `Cc1c(C(=O)C(=O)NC(C)(C)c2cscn2)c(C)n(C)c1C(=O)Nc1ccc(F)c(C(F)(F)F)c1` [Compound 141, N-[4-fluoro-3-(trifluoromethyl)phenyl]-1,3,5-trimethyl-4-[2-[(1-methyl-1-thiazol-4-yl-ethyl)amino]-2-oxo-acetyl]pyrrole-2-carboxamide]: the EC50 is 1 to 10 nM. In the case of `C#C[C@@](C)(CO)NC(=O)C(=O)c1c(C)c(C(=O)Nc2ccc(F)c(C(F)(F)F)c2)n(C)c1C` [Compound 66b, (S)—N-(4-fluoro-3-(trifluoromethyl)phenyl)-4-(2-((1-hydroxy-2-methylbut-3-yn-2-yl)amino)-2-oxoacetyl)-1,3,5-trimethyl-1H-pyrrole-2-carboxamide], the EC50 was in the range of 1 to 10 nM. Take `C#CC(C)(CC)NC(=O)C(=O)c1c(C)c(C(=O)Nc2ccc(F)c(F)c2)n(C)c1C` (stereo not shown) [Compound 88, N-(3,4-difluorophenyl)-4-[2-[(1-ethyl-1-methyl-prop-2-ynyl)amino]-2-oxo-acetyl]-1,3,5-trimethyl-pyrrole-2-carboxamide]: the EC50 fell in the range of 1 to 10 nM. As to `C=C[C@@](CO)(NC(=O)C(=O)c1c(C)c(C(=O)Nc2ccc(F)c(C(F)(F)F)c2)n(C)c1C)C(F)(F)F` [Compound 80b, N-[4-fluoro-3-(trifluoromethyl)phenyl]-1,3,5-trimethyl-4-[2-oxo-2-[[(1S)-1-(hydroxymethyl)-1-(trifluoromethyl)allyl]amino]acetyl]pyrrole-2-carboxamide], the EC50 lay within 1 to 10 nM.

For `C#C[C@](C)(CO)NC(=O)C(=O)c1c(C)c(C(=O)Nc2ccc(F)c(C(F)(F)F)c2)n(C)c1C` [Compound 66a, (R)—N-(4-fluoro-3-(trifluoromethyl)phenyl)-4-(2-((1-hydroxy-2-methylbut-3-yn-2-yl)amino)-2-oxoacetyl)-1,3,5-trimethyl-1H-pyrrole-2-carboxamide], the EC50 was below 1 nM. As to `C#C[C@](CO)(NC(=O)C(=O)c1c(C)c(C(=O)Nc2ccc(F)c(C#N)c2)n(C)c1C)C(F)(F)F` [Compound 71a, N-(3-cyano-4-fluoro-phenyl)-1,3,5-trimethyl-4-[2-oxo-2-[[(1R)-1-(hydroxymethyl)-1-(trifluoromethyl)prop-2-ynyl]amino]acetyl]pyrrole-2-carboxamide], the EC50 is 1 to 10 nM. Take `C#C[C@@H](C)NC(=O)C(=O)c1c(C)c(C(=O)Nc2ccc(F)c(C#N)c2)n(C)c1C` [Compound 17a, N-(3-cyano-4-fluoro-phenyl)-1,3,5-trimethyl-4-[2-oxo-2-[[(1R)-1-methylprop-2-ynyl]amino]acetyl]pyrrole-2-carboxamide]: the EC50 lay within 1 to 10 nM. Turning to `C#CC1(NC(=O)C(=O)c2c(F)c(C(=O)Nc3ccc(F)c(C#N)c3)n(C)c2C)CC(F)(F)C1` [Compound 56, N-(3-cyano-4-fluoro-phenyl)-4-[2-[(1-ethynyl-3,3-difluoro-cyclobutyl)amino]-2-oxo-acetyl]-3-fluoro-1,5-dimethyl-pyrrole-2-carboxamide], the EC50 was below 1 nM. Consider `Cc1c(C(=O)C(=O)NC(C)(C)c2ccc3[nH]cnc3c2)c(C)n(C)c1C(=O)Nc1ccc(F)c(C#N)c1` [Compound 160, 4-[2-[[1-(1H-benzimidazol-5-yl)-1-methyl-ethyl]amino]-2-oxo-acetyl]-N-(3-cyano-4-fluoro-phenyl)-1,3,5-trimethyl-pyrrole-2-carboxamide], for which the EC50 was in the range of 1 to 10 nM.
